Test results taken from patent US10947202B2, “Sodium ion channel inhibitors and pharmaceutically acceptable salts and polymorphs thereof and uses thereof” (SHANGHAI HAIYAN PHARMACEUTICAL TECHNOLOGY CO., LTD., priority 2017, dated 2021).
Blank lines part the entries; values can stand above or below the compound they belong to.

Columns and labels:
[1] = Metabolism stability test in liver microsomes; type: in vitro ADME; settings: human liver microsomes
Method: Buffer A: 1 L solution of 100 mM potassium dihydrogen phosphate containing 1 mM EDTA (Sigma, V900157-100G) was prepared.
Buffer B: 1 L solution of 100 mM dipotassium hydrogen phosphate containing 1 mM EDTA was prepared.
Buffer C: 700 mL of buffer B was taken out and titrated with buffer A to pH 7.4.
2.1 10 μl of 10 mM compound to be tested and 10 μl of 10 mM ketanserin were taken out and 190 μl of pure acetonitrile was added to each of them to prepare 500 μM compound to be tested and ketanserin, respectively.
2.2 20 μl (20 mg/mL) of liver microsomes (Corning Lot. NO. 4133007) stock solution was added to 513.4 μl of buffer C on wet ice. 0.75 mg/mL liver microsomal solution was obtained.
2.3 1.5 μl of each of the above-mentioned compound to be tested and ketanserin solution was added to 498.5 μl of liver microsomal solution (0.7 5 mg/mL) respectively on wet ice. 1.5 μM mixed solution of compound to be tested and 1.5 μM mixed solution of ketanserin were obtained.
2.4 At the time points 0, 5, 15, 30, 45, and 60 min, 30 μl of the mixed solution of compound to be tested and 30 μl of the mixed solution of ketanserin were dispensed into the reaction plate on wet ice, respectively.
2.5 5 mg reduced coenzyme II (Roche, 10621706001) was weighed and dissolved in 1 mL of buffer C. 6 mM reduced coenzyme II solution was obtained. The reduced coenzyme II solution was dispensed into the reaction plate.
2.6 Imipramine was dissolved to give a 10 mM solution. 10 μl imipramine solution was added to 100 mL of blank acetonitrile to generate the internal reference.
2.7 At 0 min, 135 μL of iced acetonitrile (Merck (Lot. 1778229518)) containing the internal reference was added to each well and then 15 μL of buffer C was added.
2.8 The reaction plate was placed into a 37° C. water bath incubator for 5 min. In the reaction plate, 15 μL of reduced coenzyme II solution was added to each well to initiate the reaction, and the time keeping was started. At the time points of 5, 15, 30, 45, and 60 min, 135 μL of iced acetonitrile containing the internal reference was added to each well to terminate the reaction.
2.9 The reaction plate was sealed with an aluminum film, placed on a vibration mixer and shaken at 500 rpm for 5 min. The plate was then centrifuged in a centrifuge at 3750 rp for 15 min.
2.10 The sample was diluted with pure water in accordance with the ratio of 1:1 and detected by LC/MS. […]
Wherein, the K value and the proportional factor were calculated by those skilled in the art according to the methods described in the prior art and contained in the instructions of the liver microsome product.

hNav1.7 = hNav1.7 (Homo sapiens, UniProt Q15858); assay: Manual patch clamp experiment of hNav1.7 channel (CHO-hNav1.7 stable cell line); type: cell-based; settings: for inhibition at 0.1 µM: read-out: Inhibition of Nav1.7, 100 nM(%); for inhibition at 1 µM: read-out: Inhibition of Nav1.7, 1000 nM(%)
Description: Patch voltage clamp electrophysiology allows for the direct measurement and quantification of current block of voltage-gated sodium channels (NaV's), and allows the determination of the time and voltage-dependence of block which has been interpreted as differential binding to the resting, open and inactivated states of the sodium channel to reflect the compound's inhibitory or activating effects (Hille, B., Journal of General Physiology (1977), 69: 497-515).
Representative compounds of the present disclosure were performed using a manual patch clamp experiment and the purpose of this study was to test the effect of compounds on this ion channel current on a stable cell line transfected with a specific ion channel using a manual patch clamp method, the used stable cell lines CHO-hNav1.7 and HEK-hNav1.5 were from Genionics and WuXi Apptec (Shanghai) respectively.
Manual patch clamp experimental program is as follows:
(1) Preparation of solutions and compounds: The whole cell patch clamp technique was used to record hNav1.7 and hNav1.5 currents. In the experiment, the composition of extracellular fluid (mM): HEPES: 5, NaCl: 40, KCl: CaCl2:1, MgCl2:1, CdCl2:0.1, TEA-Cl: 20. The pH was adjusted to 7.3 with NaOH and the osmotic pressure was adjusted to 310-320 mOsm with sucrose, filtered and stored at 4° C. The composition of the intracellular fluid (mM): HEPES: 10, NaCl: 10, CsOH: 5, CsF: 140, EGTA: 1. The pH was adjusted to 7.3 with CsOH and the osmotic pressure was adjusted to 280-290 mOsm with sucrose, filtered and stored at −20° C.
The positive control and the test compound were firstly dissolved in 100% DMSO (Sigma-Aldrich, D2650), configured as stock solution at a concentration (100 nM, 1000 nM).) The above stock solution was serially diluted with DMSO prior to the experiment, the solution was further diluted with extracellular solution to obtain the desired concentration of the test solution.
(2) Manual Patch Clamp Experiment: The cell suspension was added to a 35 mm petri dish and placed on an inverted microscope stage, the cells were perfused with an extracellular fluid and the flow rate was 1-2 mL/min after cell adherence. The glass microelectrode was pulled in two steps by a microelectrode puller with an inlet water resistance of 2-5 MΩ. A/D-D/A digital-analog conversion was performed by Digidata 1440 (Molecular Devices) and pCLAMP software (version 10.2, Molecular Devices) for stimulation and signal acquisition; the signal was amplified by patch clamp amplifier (Multiclamp 700B, Molecular Devices), filtering is 4 KHz.
Two different voltage stimulation procedures were used in the hNav1.7 and hNav1.5 manual patch clamp experiments.
One is the inactivation stimulation program, the clamp potential is set at V1/2 of the corresponding channel, ie about 50% of the channels are inactivated, then the voltage is applied to −120 mV for 50 ms, then depolarized to −10 mV for 20 ms leading to sodium current, and finally back to the clamp potential. This stimulation program can also be called channel state-dependent voltage stimulation program.
The other is the non-inactivation stimulation program, the clamp potential is maintained at −120 mV, voltage stimulation is given to −10 mV for 20 ms leading to sodium current, and finally back to the clamp potential. That is all channels have not experienced inactivation status, but activate directly from the resting state under the conditions of the stimulation program.
The time intervals of these two voltage stimulation program were 10 s. The inhibitory effect of the compound was calculated by the change of the current before and after dosing, the IC50 value was fitted by the Hill equation. […] The results are shown in Table 33 and Table 34, respectively.

[2] = Hygroscopicity experiment (DVS); type: physicochemical
Description: The Dynamic Vapor Sorption (DVS) curve was acquired on the DVS Intrinsic of Surface Measurement Systems.
The DVS results for crystal forms A, D, E-3 and F are shown in FIG. 1E, FIG. 4F, FIG. 7E and FIG. 8E, respectively.

[3] = Crystal form stability on shaking in solvent or heating (XRPD); type: physicochemical
Method: The reaction solution in the step 4 of Example 1 was poured into water, extracted with ethyl acetate, dried and concentrated, ethanol was added to dissolve and the solution was evaporated, 1N hydrochloric acid and ethyl acetate were added and stirred for 1-2 h, filtered, a solid product which was the crystal form III of free base was obtained, the X-ray powder diffraction pattern is shown in FIG. 11A (the 2θ angle has been marked), the DSC/TGA/DVS patterns are shown in FIGS. 11B, 11C and 11D. According to the DSC pattern, there is an inflection point around 100° C., and the sample has a melting absorption peak at 181.9° C. […] The sample was shaken in ACE and MeOH at 50° C. for 1 day, and the crystal form was unchanged.
The reaction solution in the step 4 of Example 1 was poured into water, extracted with ethyl acetate, dried and concentrated to retain a small amount of ethyl acetate, 1N hydrochloric acid was added and stirred for 1 h, filtered, the filter cake was washed with ethanol and then filtered to obtain a solid product which was the crystal form IV of free base was obtained. The X-ray powder diffraction pattern is shown in FIG. 12A (the […] has been marked), the DSC/TGA/DVS patterns are shown in FIGS. 12B, 12C and 12D. […] The sample was shaken in ACE at 50° C. for 1 day, and the crystal form was unchanged. […]

Sequence of hNav1.7 (Q15858 whole entry): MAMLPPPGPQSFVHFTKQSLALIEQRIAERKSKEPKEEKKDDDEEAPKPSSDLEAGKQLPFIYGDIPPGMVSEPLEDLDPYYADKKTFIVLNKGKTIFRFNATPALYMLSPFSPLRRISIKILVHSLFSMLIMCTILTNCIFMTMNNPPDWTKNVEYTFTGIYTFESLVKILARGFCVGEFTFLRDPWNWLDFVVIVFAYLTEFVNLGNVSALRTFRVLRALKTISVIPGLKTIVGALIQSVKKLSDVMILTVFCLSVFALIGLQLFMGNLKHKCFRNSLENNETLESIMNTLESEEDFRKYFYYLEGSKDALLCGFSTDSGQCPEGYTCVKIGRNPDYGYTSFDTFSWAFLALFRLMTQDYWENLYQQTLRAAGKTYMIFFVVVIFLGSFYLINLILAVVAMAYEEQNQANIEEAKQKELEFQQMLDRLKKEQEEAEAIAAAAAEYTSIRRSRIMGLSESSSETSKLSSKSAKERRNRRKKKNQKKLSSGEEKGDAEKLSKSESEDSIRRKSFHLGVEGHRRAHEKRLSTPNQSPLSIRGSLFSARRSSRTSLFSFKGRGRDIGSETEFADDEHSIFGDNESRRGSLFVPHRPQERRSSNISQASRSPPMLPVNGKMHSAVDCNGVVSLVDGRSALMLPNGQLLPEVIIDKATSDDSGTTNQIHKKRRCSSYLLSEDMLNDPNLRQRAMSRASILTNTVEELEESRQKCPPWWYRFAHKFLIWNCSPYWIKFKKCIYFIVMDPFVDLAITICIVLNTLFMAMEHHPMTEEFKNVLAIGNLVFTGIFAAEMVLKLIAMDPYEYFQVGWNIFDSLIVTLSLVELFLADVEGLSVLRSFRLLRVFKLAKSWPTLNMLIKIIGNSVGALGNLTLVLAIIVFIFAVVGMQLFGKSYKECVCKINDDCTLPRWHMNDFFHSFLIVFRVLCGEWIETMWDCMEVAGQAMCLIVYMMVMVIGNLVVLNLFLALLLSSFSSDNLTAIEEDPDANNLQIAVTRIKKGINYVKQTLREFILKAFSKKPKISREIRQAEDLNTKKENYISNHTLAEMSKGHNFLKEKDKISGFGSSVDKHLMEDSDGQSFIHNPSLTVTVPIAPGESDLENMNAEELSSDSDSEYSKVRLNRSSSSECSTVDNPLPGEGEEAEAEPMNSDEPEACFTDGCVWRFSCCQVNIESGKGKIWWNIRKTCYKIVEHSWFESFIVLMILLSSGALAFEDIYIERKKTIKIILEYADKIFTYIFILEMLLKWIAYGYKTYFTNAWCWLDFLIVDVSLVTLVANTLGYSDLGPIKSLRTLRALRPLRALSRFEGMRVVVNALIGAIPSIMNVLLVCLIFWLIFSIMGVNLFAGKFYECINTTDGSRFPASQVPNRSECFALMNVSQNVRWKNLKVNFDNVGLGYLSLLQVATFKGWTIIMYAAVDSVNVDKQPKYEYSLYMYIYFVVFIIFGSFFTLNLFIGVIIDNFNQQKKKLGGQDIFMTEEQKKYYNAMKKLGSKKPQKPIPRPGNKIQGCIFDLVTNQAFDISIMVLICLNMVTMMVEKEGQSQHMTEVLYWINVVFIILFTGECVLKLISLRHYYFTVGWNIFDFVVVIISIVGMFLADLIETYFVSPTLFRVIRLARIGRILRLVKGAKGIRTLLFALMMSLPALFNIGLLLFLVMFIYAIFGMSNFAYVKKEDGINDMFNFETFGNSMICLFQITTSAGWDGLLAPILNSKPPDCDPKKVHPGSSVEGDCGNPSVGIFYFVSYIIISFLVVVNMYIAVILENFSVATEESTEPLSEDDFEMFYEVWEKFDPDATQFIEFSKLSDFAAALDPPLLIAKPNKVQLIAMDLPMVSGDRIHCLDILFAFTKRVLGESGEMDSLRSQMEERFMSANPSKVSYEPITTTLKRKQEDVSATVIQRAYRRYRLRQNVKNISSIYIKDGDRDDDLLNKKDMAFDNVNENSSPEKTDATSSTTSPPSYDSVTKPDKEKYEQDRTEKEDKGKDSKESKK

Clearance ratio [1]: 78.28 mL/min/kg
SMILES: CS(=O)(=O)NC(=O)c1cc(Cl)c(CN2CCN(c3ccc(C4CC4)c(Cl)c3)CC2)cc1F [C12, reference compound]

inhibition at 0.1 µM (hNav1.7): 52%
inhibition at 1 µM (hNav1.7): 64%
SMILES: CS(=O)(=O)NC(=O)c1cc(C2CC2)c(CN2CCN(Cc3ccc(Cl)c(Cl)c3)CC2)cc1F [C2]

inhibition at 0.1 µM (hNav1.7): 49.2%
inhibition at 1 µM (hNav1.7): 64.8%
SMILES: O=C(NS(=O)(=O)C1CC1)c1cc(C2CC2)c(CN2CCN(Cc3cc(Cl)cc(Cl)c3)CC2)cc1F [C1]

The next lines start with the compound.

SMILES: Cc1cc(N2CCN(Cc3cc(F)c(C(=O)NS(C)(=O)=O)cc3Cl)CC2)ccc1Cl [C13, reference compound]
Clearance ratio [1]: 138.91 mL/min/kg

SMILES: Cc1cc(N2CCN(Cc3cc(F)c(C(=O)NS(=O)(=O)C4CC4)cc3Cl)CC2)ccc1Cl [crystal form I, 5-chloro-4-((4-(4-chloro-3-methylphenyl)piperazin-1-yl)methyl)-N-(cyclopropylsulfonyl)-2-fluorobenzamide]
hygroscopicity (DVS curve) [2]: slightly hygroscopic
stability of the crystal form (assessment in words) [3]: good stability

SMILES: Cc1cc(N2CCN(Cc3cc(F)c(C(=O)NS(=O)(=O)C4CC4)cc3Cl)CC2)ccc1Cl [crystal form V, 5-chloro-4-((4-(4-chloro-3-methylphenyl)piperazin-1-yl)methyl)-N-(cyclopropylsulfonyl)-2-fluorobenzamide]
hygroscopicity (DVS curve) [2]: slightly hygroscopic
crystal form after heating ([3]; heated to 150° C.): converted into crystal form I

SMILES: O=C(NS(=O)(=O)C1CC1)c1cc(Cl)c(CN2CCN(Cc3ccc(Cl)cc3)CC2)cc1F [C6]
inhibition at 1 µM (hNav1.7): 67.2%
